Source: paper PMC9867837 (Cancer letters, 2022)

What was measured:
[1] = target: SH2 domain of pure recombinant Stat3 (Homo sapiens, UniProt P40763); assay: Stat3 fluorescence polarization (FP) assay; type: binding; settings: 0–10 μM, 5-carboxyfluorescein-GpYLPQTV-NH2 probe
Experimental: Details are presented in Supplementary Information, “Methods”.
The Stat3:azetidine compound interaction was investigated further by focusing on how the compounds might interfere with Stat3 dimerization (Stat3:Stat3), which occurs via pTyr peptide:SH2 domain interaction. […]
confocal microscope (Stellaris 8-STED Super -resolution , Germany) with a 60x oil lens and images were processed by ImageJ software.
1.2.9. Fluorescence polarization assay (FP)
These studies were conducted as previously reported using the labeled phosphopeptide, 5-carboxyfluorescein GpYLPQTV-NH 2 (where pY represents phospho-Tyr) as probe and purified recombinant Stat3, with some modifications. […]
10 µM of unlabeled GpYLPQTV-NH 2 (positive control) or H182 at 30 °C for 30 min in the indicated assay buffer conditions, prior to the addition of the labeled probe at 10 nM final concentration and incubated for 30 min at room temperature, and thereafter reading the FP signal at 10, 30, and 60 min using the SpectraMax ID5 (Molecular Devices, San Jose, CA), with the set gain adjustment at 35 mP. In some cases, the recombinant His-Stat3 was pre-incubated with the unlabeled GpYLPQTV-NH 2 or H182 at 0-10 µM for 10 min or at 0-50 µM for 30 min prior to incubation with the labeled probe, and thereafter reading the FP signal at 10, 30, or 60 min using the SpectraMax ID5, with the set gain adjustment at 35 mP.
1.2.10. […]

[2] = Human liver microsome stability; type: in vitro ADME; settings: liver microsomes, read-out: Metabolic Stability HLM t1/2
Experimental: Solubility, human (HLM) and mouse liver microsomal (MLM), and plasma stability studies were performed by Eurofins Cerep Panlabs and Eurofin Discovery Services (www.eurofins.com/PharmaDiscovery), while protein binding studies were performed by Sanford Burnham Prebys Chemical Biology & Drug Discovery Core using standard protocols.

MDA-MB-231 cells = assay: Clonogenic survival assay; type: cell-based, human; settings: 0.3–2 μM H182, treated once
Experimental: These studies were performed as previously reported. Details are presented in Supplementary Information, “Methods”.
These studies were performed as previously reported . For the clonogenic survival assay, briefly, cells were seeded as single-cell (500 cells per well) in 6 -well plates, then untreated (DMSO control) or treated once the following day with H182 and allowed to grow until large colonies were visible, which were stained with crystal violet for 4 h and imaged with a FluorChem imaging system (Protein Simple, Santa Clara, CA).
For the soft-agar assay, briefly, each well contained a bottom layer of 1 ml of 1% agarose in complete DMEM and a top layer of 1 ml of 0.5% agarose in complete DMEM containing 500 cells. After the upper agar layer containing cells solidified, 1 ml culture medium containing H182 (0-2 µM) or DMSO (control) was overlaid, and the cultures were maintained at 37 °C in the incubator, with the medium replacement every 3-4 days with fresh medium that contains the inhibitor or not. Cells were allowed to culture for 3-4 weeks until large colonies were visible under microscope. The colonies were stained with crystal violet and […]
1.2.8. Confocal microscopy studies
4 cells in 1 ml) in logarithmic
These studies were performed as previously reported. […]

Chain of SH2 domain of pure recombinant Stat3 (P40763 whole entry, the tested form may be a part): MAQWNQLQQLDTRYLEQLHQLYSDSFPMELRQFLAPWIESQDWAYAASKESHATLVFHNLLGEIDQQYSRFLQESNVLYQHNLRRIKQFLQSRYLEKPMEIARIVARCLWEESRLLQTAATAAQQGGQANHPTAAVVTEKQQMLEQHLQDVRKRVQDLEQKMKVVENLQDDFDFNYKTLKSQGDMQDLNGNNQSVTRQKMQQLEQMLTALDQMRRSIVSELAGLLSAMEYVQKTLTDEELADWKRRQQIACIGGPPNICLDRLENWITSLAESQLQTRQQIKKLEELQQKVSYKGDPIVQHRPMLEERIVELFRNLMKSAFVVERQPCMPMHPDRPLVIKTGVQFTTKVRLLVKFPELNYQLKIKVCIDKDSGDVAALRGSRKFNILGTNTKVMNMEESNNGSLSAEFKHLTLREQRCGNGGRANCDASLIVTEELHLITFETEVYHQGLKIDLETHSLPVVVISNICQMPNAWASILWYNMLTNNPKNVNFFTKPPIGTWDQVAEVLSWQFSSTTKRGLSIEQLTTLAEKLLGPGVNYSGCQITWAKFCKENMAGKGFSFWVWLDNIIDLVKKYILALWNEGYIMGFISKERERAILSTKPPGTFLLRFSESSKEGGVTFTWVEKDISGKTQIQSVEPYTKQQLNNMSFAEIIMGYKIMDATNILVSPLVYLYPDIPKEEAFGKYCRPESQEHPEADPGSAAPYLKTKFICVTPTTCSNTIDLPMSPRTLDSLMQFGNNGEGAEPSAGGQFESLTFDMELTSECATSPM

SMILES: O=C([C@H]1CCN1S(=O)(=O)c1c(F)c(F)c(F)c(F)c1F)N(Cc1ccc(C2CCCCC2)cn1)c1ccc2c(=O)[nH]ncc2c1 [Compound H182]
- Effect on FP signal [1]: fluctuations of the FP signal
- half-life [2]: 21 min
- Effect on anchorage-dependent colony formation (MDA-MB-231 cells): potently and dose-dependently inhibited
